Data published in patent US20050222167A1, “9-aminoacridine derivatives and process for the preparation thereof” (priority 2002, published 2005).
≈ marks a conversion by molar mass, not a printed value.

Tests used:
[1] = tested on: P388 (mouse lymphoid neoplasma cell); assay: Dye exclusion assay, in vitro antitumor effects against animal leukemia cells; type: cell-based; conditions: P388, trypan blue dye exclusion, 48 hours, read-out: concentration showing 50% cell growth inhibition (IC50)
Source text: Experimental 2: In Vitro Antitumor Effects Against Animal Leukemia Cells. A. Material:
Tumor cell lines: P388 (mouse lymphoid neoplasma cell)
B. Method: Dye Exclusion Assay.

[2] = tested on: A549 (human non-small lung cell); assay: SRB assay, in vitro antitumor effect against human tumor cell lines; type: cell-based; conditions: 48 hours
Description: (§1) Experimental 1: In vitro antitumor effect against human tumor cell lines.
(§2) A. Tumor cell lines: A549 (human non-small lung cell)
(§3) • SKOV-3 (human ovarian) • HCT-15 (human colon) • XF-498 (human CNS) • SKMEL-2 (human melanoma) B. Method: SRB Assay • a. Human solid tumor cell lines, A549(non-small lung cell), SKMEL-2(melanoma), HCT-15(colon), SKOV-3(ovarian) and XF-498(CNS) were cultured in 5% CO2 incubators using the RPMI 1640 media containing 10% FBS at 37° C., while with transfer-culturing successively once or twice per week. Cell cultures were dissolved in a solution of 0.25% trysin and 3 mmol CDTA PBS(−) to separate the cells sticked on the culture media. • b. 5 103˜2 104 cells were added into each well of 96-well plate and cultured in 5% CO2 incubator at 37° C. for 24 hours. • c. Each sample drug was dissolved in a little DMSO and diluted with the used medium to a prescribed concentration for experiment, while the final concentration of DMSO was adjusted below 0.5%. • d. Medium of each well cultured for 24 hours as above b. was removed by aspiration. Each 200 μl of drug samples prepared in c. was added into each well and the wells were cultured for 48 hours. Tz (time zero) plates were collected at the point of time drugs were added. • e. According to the SRB assay method, cell fixing with TCA, staining with 0.4% SRB solution, washing with 1% acetic acid and elution of dye with 10 mmol Tris solution were carried out on Tz plates and culture-ended plates, and then, OD values were measured at 520 nm. C. Calculation of Result • a. Time zero (Tz) value was determined with measuring the SRB protein value at the point of time drugs were added. • b. Control value (C) was determined with the OD value of an well untreated with drug. • c. Drug-treated test value (T) was determined with the OD value of drug-treated well. • d. Effects of drugs were estimated with growth stimulation, net growth inhibition and net killing calculated from Tz, C and T values. • e. If T≧Tz, cellular response function was calculated by 100×(T−Tz)/(C−Tz), and, if T<Tz, by 100 (T−Tz)/Tz.

[3] = tested on: HCT-15 (human colon); assay: as above; type: cell-based; conditions: HCT-15, SRB assay, 48 hours
Description: as §1, §2, §3

[4] = tested on: SKMEL-2 (human melanoma); assay: as above; type: cell-based; conditions: SK-MEL-2, SRB assay, 48 hours
Description: as §1, §2, §3

[5] = tested on: SKOV-3 (human ovarian); assay: as above; type: cell-based; conditions: SK-OV-3, SRB assay, 48 hours
Description: as §1, §2, §3

[6] = tested on: XF-498 (human CNS); assay: as above; type: cell-based; conditions: XF-498, SRB assay, 48 hours
Description: as §1, §2, §3

[7] = tested on: Leukemia P388 cells; assay: In vivo antitumor effects against mouse leukemia P388 cells; conditions: abdominal cavity, days 1, 5, 9, BDF1 mice with P388
Description: Experimental 3: In Vivo Antitumor Effects Against Mouse Leukemia P388 Cells A. Material of Experiment • BDF1 mice were used. B. Method of Experiment • 1) Leukemia P388 cells being transfer-cultured successively in DBA/2 mouse, were grafted into each mouse of a group comprising 8 mice of 6 week old BDF1 mouse with the dose of 1×10^6 cells/0.1 ml • 2) Sample drugs were dissolved in PBS or suspended in 0.5% tween 80, and then injected into abdominal cavity of mouse at each prescribed concentration on days 1, 5, 9, respectively. • 3) With observation everyday, survival times of tested mice were measured. Antitumor activities was deternimed in such a manner that the increasing ratio (T/C %) of average survival days of drug-treated groups compared with the control group was calculated using the mean survival times of each tested groups.

[8] = Acute toxicity test (LD50), Litchfield-Wilcoxon method; conditions: male, mouse, in vivo; iv, ICR mice, observed 14 days
Description: Experimental 4. Acute Toxicity Test (LD50): a) Method: Litchfield-Wilcoxon Method.
6-week-old ICR mice (male 30 2.0 g) were fed freely with solid feed and water at room temperature, […], and at humidity 60 5%. Sample drugs were injected into the abdominal cavities of mice. Each group comprised 6 mice. […] LD50 value was calculated by Litchfield-wilcoxon method.

IC50 [1] [µg/mL]	SMILES	ED50 [2] [µg/mL]	ED50 [3] [µg/mL]	ED50 [4] [µg/mL]	ED50 [5] [µg/mL]	ED50 [6] [µg/mL]	MST ([7]; Dose 25 mg/kg) [days]	T/C (%) ([7]; Dose 25 mg/kg)	MST ([7]; Dose 50 mg/kg) [days]	T/C (%) ([7]; Dose 50 mg/kg)	MST ([7]; Dose 100 mg/kg) [days]	T/C (%) ([7]; Dose 100 mg/kg)	LD50 at 14 days [8] [mg/kg]
0.9 (≈ 1.14 µM)	CCc1nc(OC)c(NC(=O)N2CCN(c3cc(F)cc(F)c3)CC2)cc1C(=O)NC(C)C(=O)Nc1cc(CO)cc(Nc2c3ccccc3nc3ccccc23)c1 (stereo not shown) [Example 4, 4-(3,5-difluorophenyl)piperazine-1-carboxylic acid (5-{1-[3-(acridine-9-yl-amino)-5-hydroxymethylphenylcarbamoyl]-ethylcarbamoyl}-6-ethyl-2-methoxypyridine-3-yl)amide]	–	–	–	–	–	–	–	–	–	–	–	–
0.4 (≈ 0.484 µM)	CCCc1nc(OC)c(NC(=O)N2CCN(c3cc(OC)cc(OC)c3)CC2)cc1C(=O)NC(C)C(=O)Nc1cc(CO)cc(Nc2c3ccccc3nc3ccccc23)c1 (stereo not shown) [Example 9, 4-(3,5-dimethoxyphenyl)piperazine-1-carboxylic acid (5-{1-[3-(acridine-9-yl-amino)-5-hydroxymethylphenylcarbamoyl]-ethylcarbamoyl}-2-methoxy-6-propylpyridine-3-yl)-amide]	0.24 (≈ 0.29 µM)	0.15 (≈ 0.181 µM)	0.15 (≈ 0.181 µM)	0.19 (≈ 0.23 µM)	0.15 (≈ 0.181 µM)	–	–	–	–	–	–	–
–	N.N.[Cl][Pt][Cl] [Cisplatin, cisplatin, reference compound]	0.81	3.03	0.71	0.71	0.77	–	–	–	–	–	–	–
–	CCc1nc(OC)c(NC(=O)N2CCN(c3cc(C)cc(C)c3)CC2)cc1C(=O)Nc1cc(CO)cc(Nc2c3ccccc3nc3ccccc23)c1 [Example 19, 4-(3,5-dimethylphenyl)-piperazine-1-carboxylic acid{5-[3-(acridine-9-yl-amino)-5-hydroxymethylphenylcarbamoyl]-6-ethyl-2-methoxy-pyridine-3-yl}amide]	0.21 (≈ 0.296 µM)	0.27 (≈ 0.38 µM)	0.18 (≈ 0.254 µM)	0.17 (≈ 0.239 µM)	0.38 (≈ 0.535 µM)	–	–	–	–	–	–	–
0.3 (≈ 0.371 µM)	CCc1nc(OC)c(NC(=O)N2CCN(c3cc(C)cc(C)c3)CC2)cc1C(=O)NC(C)C(=O)Nc1cc(CO)cc(Nc2c3ccccc3nc3c(C)c(C)ccc23)c1 (stereo not shown) [Example 16, 4-(3,5-dimethylphenyl)piperazine-1-carboxylic acid (5-{1-[3-(3,4-dimethylacridine-9-yl-amino)-5-hydroxymethylphenylcarbamoyl]-ethylcarbamoyl}-6-ethyl-2-methoxypyridine-3-yl)amide]	0.08 (≈ 0.0989 µM)	0.07 (≈ 0.0865 µM)	0.02 (≈ 0.0247 µM)	0.14 (≈ 0.173 µM)	0.09 (≈ 0.111 µM)	–	–	–	–	–	–	–

SMILES	IC50 [1] [µg/mL]	ED50 [2] [µg/mL]	ED50 [3] [µg/mL]	ED50 [4] [µg/mL]	ED50 [5] [µg/mL]	ED50 [6] [µg/mL]	MST ([7]; Dose 25 mg/kg) [days]	T/C (%) ([7]; Dose 25 mg/kg)	MST ([7]; Dose 50 mg/kg) [days]	T/C (%) ([7]; Dose 50 mg/kg)	MST ([7]; Dose 100 mg/kg) [days]	T/C (%) ([7]; Dose 100 mg/kg)	LD50 at 14 days [8] [mg/kg]
CCc1nc(OC)c(NC(=O)N2CCN(c3cc(OC)cc(OC)c3)CC2)cc1C(=O)NC(C)C(=O)Nc1cc(CO)cc(Nc2c3ccccc3nc3ccccc23)c1 (stereo not shown) [Example 3, 4-(3,5-dimethoxyphenyl)piperazine-1-carboxylic acid (5-{1-[3-(acridine-9-yl-amino)-5-hydroxymethylphenylcarbamoyl]-ethylcarbamoyl}-6-ethyl-2-methoxypyridine-3-yl)amide]	1 (≈ 1.23 µM)	0.12 (≈ 0.148 µM)	0.13 (≈ 0.16 µM)	0.03 (≈ 0.0369 µM)	0.19 (≈ 0.234 µM)	0.18 (≈ 0.221 µM)	17.0	154.5	>60.0	>545.5	11.6	100.0	80
CCc1nc(OC)c(NC(=O)N2CCN(c3cc(C)cc(C)c3)CC2)cc1C(=O)NC(C)C(=O)Nc1cc(CO)cc(Nc2c3ccccc3nc3ccccc23)c1 (stereo not shown) [Example 2, 4-(3,5-dimethylphenyl)piperazine-1-carboxylic acid (5-{1-[3-(acridine-9-yl-amino)-5-hydroxymethylphenylcarbamoyl]-ethylcarbamoyl}-6-ethyl-2-methoxypyridine-3-yl)amide]	0.3 (≈ 0.384 µM)	0.12 (≈ 0.154 µM)	0.19 (≈ 0.243 µM)	0.01 (≈ 0.0128 µM)	0.12 (≈ 0.154 µM)	0.18 (≈ 0.23 µM)	>60.0	>545.5	>60.0	>545.5	22.0	200.0	80
